Entries after “also recorded” stand apart in the source; their conditions may differ. Where two headings read alike, the source gives them in different places.
How the values were obtained:
MDR1 expression [1] = assay: Inhibition of cytotoxic drug-induced MDR1 expression by protein kinase inhibitors (cDNA-PCR); conditions: for inhibition of MDR1 induction by cytotoxic drugs: concentration not stated
Experimental: Cells were plated in 6-well Falcon tissue culture plates at 3,300 cells per well, and incubated in the appropriate concentrations of drugs. Each of the protein kinase inhibitors to be tested were added at the appropriate final concentration 45 minutes prior to MDR1 induction by the addition of Ara-C or TPA, with the exception of herbimycin A, which was added 12 hours prior to Ara-C or TPA, and tyrphostins A25 and B46, which were each added 16 hours prior to MDR1 induction by the addition of Ara-C or TPA. Cells were incubated overnight (TPA) or for 10 hours (Ara-C) at 37° C./ 5% CO2 after the addition of the MDR1 inducing agents before harvesting for cDNA-PCR analysis.
In addition, the analysis of certain drugs imposed added requirements. For experiments using calphostin C, cells were incubated under direct white light illumination. For experiments using D,L-threo-sphingosine, the cell culture medium was pre-treated with the appropriate concentration of the drug for one hour at 37° C. with continuous gentle mixing. After this pretreatment, cells were resuspended in media supplemented with drug and incubated for 45 minutes as described above.
To further evaluate the capacity of protein kinase inhibitors to suppress MDR1 induction by cytotoxic drugs and PKC agonists, H-9 human T-cell leukemia cells were used in cDNA-PCR assays to examine induced MDR1 mRNA expression levels in the presence of protein kinase inhibitors.

[2] = test system: MDR1 expression (P-glycoprotein); assay: Induction of MDR1 expression by cytotoxic drugs (dye efflux, UIC2, cDNA-PCR); assay type: cell-based, human
Experimental: (§1) (Commercially-available kits (for example, from GIBCO/BRL, Gaithersburg, Md.) can be advantageously modified for making cDNA using random hexamers.) PCR is then performed using the following primers: […]
(§2) (where β2 M represents β2 microglobulin). PCR was performed for β2 M experiments under a regime consisting of 1 cycle comprising denaturation at 94° C. for 3 minutes, primer annealing at 60° C. for 30 seconds, and primer extension at 72° C. for 1 minute, followed by 19 cycles comprising denaturation at 94° C. for 30 seconds, primer annealing at 60° C. for 30 seconds, and primer extension at 72° C. for 1 minute, followed by a final cycle comprising denaturation at 94° C. for 30 seconds, primer annealing at 60° C. for 30 seconds, and primer extension at 72° C. for 5 minutes. MDR1 cDNA sequences were amplified using the identical protocol as for β2 M, but extending the amplification from 19 cycles to 25 cycles. In addition, the cDNA-PCR amplification protocol contained the following modifications: (i) Taq DNA polymerase was added to the PCR mixtures after initial heating of the samples to 94° C. (ii) The yield of the β2 -microglobulin-specific band, obtained after 22-28 cycles of PCR, was used as the primary criterion for equalizing the starting amounts of the cDNA templates in different preparations, in order to account for differential RNA degradation in cells subjected to different types of treatment. ^32 P-labeled PCR products were detected by autoradiography.
In particular PKC is activated by treatment with Ara-C. Therefore, experiments were performed to test whether Ara-C, which is not transported by P-glycoprotein, would have any effect on P-glycoprotein function in K562 leukemia cells.
Also assayed was whether drug-induced MDR1 expression was maintained after cytotoxic drug treatment. […] At different times, MDR1 expression in the surviving cells was analyzed by dye efflux and immunofluorescence labeling with UIC2 (FIG. 3C) or by cDNA-PCR (FIG. 4E).

[3] = test system: MDR1 expression (P-glycoprotein); assay: MDR1/P-glycoprotein expression in human cells treated with TPA, DOG, other agents (Rh123 accumulation, UIC2 staining, cDNA-PCR); assay type: cell-based
Experimental: KG1 cell line was maintained in Iscove's modified Dulbecco medium with 20% fetal calf serum (FCS) and 2 mM L-glutamine, 100 units/mL penicillin and 100 μg/mL streptomycin (GIBCO Laboratories, Grand Island, N.Y.).
PBL were treated with 1 ng/mL TPA; H9 and K562 cells with 10 ng/mL TPA; KG1a and KG1 cells with 100 ng/mL TPA and the other cell lines with 10 ng/mL TPA.
Mouse IgG2a isotype control antibody was obtained from Sigma. For staining of PBL with UIC2 mAb or isotype control, 10^6 cells were stained at 4° C. with 10 μg of the antibody for 30 minutes and, after two washes, stained for 30 minutes with 10 μg of FITC-conjugated goat anti-mouse IgG2a antibody (Fisher Scientific, Fairlawn, N.J.), diluted 1:2 with PBS plus 2% FCS. Cells were then washed twice with ice-cold PBS plus 2% FCS, stained with PI and kept on ice until analysis. Essentially the same protocol was used for staining of other cell types except that 2 μg of the secondary antibody were used per 10^6 cells. In some experiments, phycoerythrine (PE)-conjugated goat anti-mouse IgG2a was used as the secondary antibody; no PI was added in such cases.
as §1, §2
A functional assay was used to detect changes in P-glycoprotein activity in human PBL treated with different agents that induce lymphoid differentiation or activation, based on flow cytometric analysis of cellular accumulation of Rh123, which is a P-glycoprotein-transported fluorescent mitochondrial dye. In this assay, cells expressing little or no P-glycoprotein stain brightly with Rh123, whereas cells with higher levels of P-glycoprotein activity appear Rh123-dull. […] Since the best-known cellular effect of TPA is the stimulation of PKC, DOG (a cell-permeable diacylglycerol and a physiological stimulant of PKC) was also tested to determine its effects on Rh123 accumulation in PBL.

MDR1 expression [4] = assay: Inhibition of cytotoxic drug-induced MDR1 expression by cytoplasmic calcium antagonists and calmodulin inhibitors; assay type: cell-based, human; conditions: H9; for inhibition of AraC-induced MDR1 gene expression: 10 μM calmidazolium chloride, 25 μM AraC
Experimental: H9 cells were incubated as described above in the presence of the following cytotoxic drugs: Ara C (at a concentration of 25 μM), Adriamycin (2 μM), bleomycin (100 μg/ml), 2-deoxyglucose (10 mM) and nocodazole (2.5 μM). In parallel, cultures of H9 cells were incubated in the presence of each of these cytotoxic drugs and of a highly specific chelator of intracellular calcium ion, 1, 2-bis(o-aminophenoxy)-ethane-N,N,N',N'-tetraacetic acid, tetra(acetoxymethyl)-ester (BAPTA/AM) at a concentration of 5 μM for 10 hrs. under the conditions described above. The inhibitor was added 45 min. prior to the addition of each of the MDR1 inducing agents. cDNA-PCR analysis, including gel electrophoresis and autoradiography as described above, was performed for each culture after drug treatment in the presence or absence of this chelator.
H9 cells were incubated as above with 25 μM AraC in the presence or absence of 10 μM calmidazolium chloride, and cDNA-PCR analysis as described above was performed.

[5] = 50-100 μM tyrphostin, H-9 cells
[6] = human leukemia and solid-tumor derived cell lines, short-term exposure

Structure (SMILES): N#CC(=Cc1ccc(O)c(O)c1)C(=O)NCCCc1ccccc1 [tyrphostin B46]
- inhibition of Ara-C induced MDR1 expression (MDR1 expression [1]; [5]): strongly inhibit Ara-C induced MDR1 expression; also recorded: inhibit Ara-C induced MDR1 expression

Structure (SMILES): NC(=O)NO [hydroxyurea]
- MDR1 induction [2]: MDR1 induction, both at the mRNA and at the protein levels, was observed
- MDR1 mRNA expression [2]: induce MDR1 mRNA expression
- Rh123 or DiOC2(3) efflux by treated cells ([2]; K562): 3-10%

Structure (SMILES): COc1cccc2c1C(=O)c1c(O)c3c(c(O)c1C2=O)C[C@@](O)(C(C)=O)C[C@@H]3O[C@H]1C[C@H](N)[C@H](O)[C@H](C)O1 [daunorubicin]
- MDR1 induction [2]: MDR1 induction, both at the mRNA and at the protein levels, was observed
- MDR1 mRNA expression [2]: induce MDR1 mRNA expression
- Rh123 or DiOC2(3) efflux by treated cells [2]: 3-10%

Structure (SMILES): COc1cc([C@@H]2c3cc4c(cc3[C@@H](O[C@@H]3O[C@@H]5CO[C@@H](C)O[C@H]5[C@H](O)[C@H]3O)[C@H]3COC(=O)[C@H]23)OCO4)cc(OC)c1O [etoposide]
- MDR1 induction [2]: MDR1 induction, both at the mRNA and at the protein levels, was observed

Structure (SMILES): COc1c(CC(C)OC(=O)Oc2ccc(O)cc2)c2c3c(CC(C)OC(=O)c4ccccc4)c(OC)c(=O)c4c(O)cc(OC)c(c5c(OC)cc(O)c(c1=O)c52)c43 (centres unmarked) [calphostin C]
- inhibitory capacity on Ara-C induced MDR1 expression (MDR1 expression [1]; 0.1 μM calphostin C + white light): greatly reduced
- inhibition of Ara-C induced MDR1 expression (MDR1 expression [1]; 1 μM calphostin C + white light): capable of inhibiting MDR1 expression; also recorded: prevent MDR1 induction by chemotherapeutic drugs
- inhibition of MDR1 induction by cytotoxic drugs (MDR1 expression [1]): capable of inhibiting MDR1 induction by cytotoxic drugs

Structure (SMILES): CC1CNCCN1S(=O)(=O)c1cccc2cnccc12 (centres unmarked) [H7]
- prevention of MDR1 induction by chemotherapeutic drugs (MDR1 expression [1]): prevent MDR1 induction by chemotherapeutic drugs
- inhibition of MDR1 induction by cytotoxic drugs (MDR1 expression [1]): capable of inhibiting MDR1 induction by cytotoxic drugs

Structure (SMILES): COc1cccc2c1C(=O)c1c(O)c3c(c(O)c1C2=O)C[C@@](O)(C(=O)CO)C[C@@H]3O[C@H]1C[C@H](N)[C@H](O)[C@H](C)O1 [Adriamycin, Doxorubicin]
- Rh123 or DiOC2(3) efflux by treated cells ([2]; K562): 3-10%
- MDR1 mRNA expression ([2]; K562, cDNA-PCR): induce MDR1 mRNA expression
- maintenance of MDR1 expression after removal of drug ([2]; K562 subpopulation, treated 3-5 days then drug-free): maintained for a least several weeks
- MDR1 mRNA expression ([2]; KB-3-1 epidermoid carcinoma): MDR1 mRNA expression was induced
- MDR1 induction [2, 6]: MDR1 induction, both at the mRNA and at the protein levels, was observed

Structure (SMILES): CN(Cc1cnc2nc(N)nc(N)c2n1)c1ccc(C(=O)N[C@@H](CCC(=O)O)C(=O)O)cc1 [methotrexate]
- MDR1 induction [2]: MDR1 induction, both at the mRNA and at the protein levels, was observed
- maintenance of MDR1 expression after removal of drug [2]: maintained for a least several weeks

Structure (SMILES): O=c1[nH]cc(F)c(=O)[nH]1 [5-fluorouracil]
- MDR1 induction [2]: MDR1 induction, both at the mRNA and at the protein levels, was observed

Structure (SMILES): CCCCCCCC(=O)OCC(CO)OC(=O)CCCCCCC (centres unmarked) [DOG, 1,2-dioctanoylglycerol]
- effect on P-glycoprotein activity (Rh123 accumulation) ([3]; human PBL): decrease Rh123 accumulation
- MDR1 gene expression ([3]; normal human PBL and leukemia/solid tumor cell lines): increase MDR1 gene expression

Structure (SMILES): CCCCCCCCCCCCC/C=C/[C@H](O)[C@@H](N)CO (relative stereo) [D,L-threo-sphingosine]
- inhibition of Ara-C induced MDR1 expression (MDR1 expression [1]; 5 μM D,L-threo-sphingosine): little or no capacity to inhibit Ara-C induced MDR1 expression; also recorded: ineffective
- Inhibition of Ara-C induced MDR1 expression (MDR1 expression [1]; 5 μM, H-9, 25 μM Ara-C 10 h): -

Structure (SMILES): CC(=O)OCOC(=O)CN(CC(=O)OCOC(C)=O)c1ccccc1OCCOc1ccccc1N(CC(=O)OCOC(C)=O)CC(=O)OCOC(C)=O [BAPTA/AM, 1,2-bis(o-aminophenoxy)ethane-N,N,N',N'-tetraacetic acid, tetra(acetoxymethyl)ester]
- inhibition of MDR1 induction by 2-deoxyglucose (10 mM) (MDR1 expression [4]; 5 μM BAPTA/AM): completely abrogate the induction of MDR1 expression
- inhibition of MDR1 induction by Adriamycin (2 μM) (MDR1 expression [4]; 5 μM BAPTA/AM): completely abrogate the induction of MDR1 expression
- inhibition of MDR1 induction by Ara C (25 μM) (MDR1 expression [4]; 5 μM BAPTA/AM): completely abrogate the induction of MDR1 expression
- inhibition of MDR1 induction by bleomycin (100 μg/ml) (MDR1 expression [4]; 5 μM BAPTA/AM): completely abrogate the induction of MDR1 expression
- inhibition of MDR1 induction by different cytotoxic agents (MDR1 expression [4]; 5 μM BAPTA/AM): completely abrogated the induction of MDR1 expression
- inhibition of MDR1 induction by nocodazole (2.5 μM) (MDR1 expression [4]; 5 μM BAPTA/AM): completely abrogate the induction of MDR1 expression
- time prior to addition of MDR1 inducers within which inhibitory effect was detectable (MDR1 expression [4]; BAPTA/AM): ≤ 3 h

Structure (SMILES): N#CC(C#N)=Cc1cc(O)c(O)c(O)c1 [tyrphostin A25]
- inhibition of Ara-C induced MDR1 expression (MDR1 expression [1]; [5]): strongly inhibit Ara-C induced MDR1 expression; also recorded: inhibit Ara-C induced MDR1 expression

Structure (SMILES): O=c1c(-c2ccc(O)cc2)coc2cc(O)cc(O)c12 [genistein]
- Inhibition of Ara-C induced MDR1 expression (MDR1 expression [1]): +
- inhibition of Ara-C induced MDR1 expression (MDR1 expression [1]): only weakly inhibited Ara-C induced MDR1 expression

Structure (SMILES): Clc1ccc(C(c2ccc(Cl)cc2)n2cc[n+](CC(OCc3ccc(Cl)cc3Cl)c3ccc(Cl)cc3Cl)c2)cc1 (centres unmarked) [calmidazolium chloride]
- inhibition of AraC-induced MDR1 gene expression (MDR1 expression [4]): inhibit AraC-induced MDR1 gene expression
- inhibition of AraC-induced MDR1 gene expression (MDR1 expression [4]; listed as Calmidazolium chloride): efficiently abrogate AraC induction of MDR1 expression

Structure (SMILES): N.N.[Cl][Pt][Cl] [cisplatin]
- Rh123 or DiOC2(3) efflux by treated cells ([2]; K562): 3-10%
- MDR1 mRNA expression ([2]; K562, cDNA-PCR): induce MDR1 mRNA expression
- MDR1 induction [2, 6]: MDR1 induction, both at the mRNA and at the protein levels, was observed

Structure (SMILES): COC1C=CC=C(C)C(=O)NC2=CC(=O)C=C(C2=O)C(OC)C(C)CC(OC)C(OC)C(C)C=C(C)C1OC(N)=O (centres unmarked) [herbimycin A]
- inhibition of Ara-C induced MDR1 expression (MDR1 expression [1]; 0.35-3 μM herbimycin A): little or no capacity to inhibit Ara-C induced MDR1 expression; also recorded: ineffective at inhibiting MDR1 induction by Ara-C

From US6171786A, “Methods for preventing multidrug resistance in cancer cells” (priority 1996, dated 2001)
